SMILES strings stand for the structures.

The assay has as its target T1, HCV-NS5b (Hepatitis C virus genotype 1b, UniProt Q9WMX2).
T1 construct: (His)6 (C); made in house; host or cells: XL-1 cells (E. coli), IPTG-inducible plasmid, nickel-NTA purification
As to the kind of experiment: HCV-NS5b enzyme assay (incorporation of radiolabeled UTP). The settings on record: for inhibition at 33 µM: enzyme inhibition at compound concentration of 33 uM; for inhibition at 100 µM: read-out: % inh@100, enzyme inhibition at compound concentration of 100 uM. Type of assay: biochemical. An outline of the steps: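 His6-tagged NS5b lacking the C-terminal 21 residues, expressed in XL-1 and Ni-NTA purified. Reaction at pH 7.5 with 5 mM MgCl2, 10 μM each NTP including [3H]-UTP and biotinylated HCV heteropolymeric template, 2 h at 37° C; SPA read-out; % inhibition at 100 and 33 uM versus no-compound control, background subtracted.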

Take `O=C(O)c1ccc2c(c1)nc(-c1ccc3nc(-c4ccc[nH]4)ccc3c1)n2C1CCCCC1` [Compound 450, 1-Cyclohexyl-2-[2-(1H-pyrrol-2-yl)-quinolin-6-yl]-1H-benzoimidazole-5-carboxylic acid]: the inhibition at 33 µM is 96.5% and the inhibition at 100 µM turned out to be 99.7%.
Consider `O=C(O)c1ccc2c(c1)nc(-c1ccc3nc(-c4ccccc4)cc(NCCCn4ccnc4)c3c1)n2C1CCCCC1` [Compound 451, 1-cyclohexyl-2-[4-(3-imidazol-1-yl-propylamino)-2-phenyl-quinolin-6-yl]-1H-benzoimidazole-5-carboxylic acid], for which the inhibition at 33 µM is 76.3% and the inhibition at 100 µM turned out to be 95.6%.
For the compound `COc1cc(O)c(-c2ccc3cc(-c4nc5cc(C(=O)O)ccc5n4C4CCCCC4)ccc3n2)c(OC)c1` [Compound 452, 1-cyclohexyl-2-[2-(2-hydroxy-4,6-dimethoxy-phenyl)-quinolin-6-yl]-1H-benzoimidazole-5-carboxylic acid], the inhibition at 33 µM worked out at 102% and the inhibition at 100 µM is 102%.
With `COc1ccc(-c2ccco2)c(-c2ccc3cc(-c4nc5cc(C(=O)O)ccc5n4C4CCCCC4)ccc3n2)c1` [Compound 454, 1-cyclohexyl-2-[2-(2-furan-2-yl-5-methoxy-phenyl)-quinolin-6-yl]-1H-benzoimidazole-5-carboxylic acid], the inhibition at 33 µM was determined as 98.3% and the inhibition at 100 µM was found to be 101%.
As to `COc1ccc(-c2ccc(F)cc2)c(-c2ccc3cc(-c4nc5cc(C(=O)O)ccc5n4C4CCCCC4)ccc3n2)c1` [Compound 455, 1-Cyclohexyl-2-[2-(4′-fluoro-4-methoxy-biphen-2-yl)-quinolin-6-yl]-1H-benzoimidazole-5-carboxylic acid], the inhibition at 33 µM was 100% and the inhibition at 100 µM stood at 99.8%.
For the compound `CCOc1ccc(-c2ccc(OC)cc2-c2ccc3cc(-c4nc5cc(C(=O)O)ccc5n4C4CCCCC4)ccc3n2)cc1` [Compound 456, 1-cyclohexyl-2-[2-(4′-ethoxy-4-methoxy-biphen-2-yl)-quinolin-6-yl]-1H-benzoimidazole-5-carboxylic acid], the inhibition at 33 µM amounted to 100% and the inhibition at 100 µM stood at 99.7%.
As to `O=C(O)c1ccc2c(c1)nc(-c1ccc3nc(C(c4ccccc4)c4ccccc4)ccc3c1)n2C1CCCCC1` [Compound 457, 2-(2-benzhydryl-quinolin-6-yl)-1-cyclohexyl-1H-benzoimidazole-5-carboxylic acid], the inhibition at 33 µM worked out at 98.2% and the inhibition at 100 µM was 98.3%.
For the compound `CN(C)c1ccc(-c2nc3ccc(-c4nc5cc(C(=O)O)ccc5n4C4CCCCC4)cc3nc2-c2ccc(N(C)C)cc2)cc1` [Compound 458, 2-[2,3-Bis-(4-dimethylaminotphenyl)quinoxalin-6-yl]-1-cyclohexyl-1H-benzimidazole-5-carboxylic acid], the inhibition at 33 µM amounted to 100% and the inhibition at 100 µM came out at 104%.
For the compound `O=C(O)c1ccc2c(c1)nc(-c1ccc3nc(-c4ccc5c(c4)CCCC5)ccc3c1)n2C1CCCCC1` [Compound 459, 1-cyclohexyl-2-[2-(5,6,7,8-tetrahydro-naphthalen-2-yl)-quinolin-6-yl]-1H-benzoimidazole-5-carboxylic acid], the inhibition at 33 µM turned out to be 99.5% and the inhibition at 100 µM was 99.8%.
As to `O=C(O)c1ccc2c(c1)nc(-c1ccc3nc(-c4c(O)ccc5ccccc45)ccc3c1)n2C1CCCCC1` [Compound 460, 1-cyclohexyl-2-[2-(2-hydroxy-naphthalen-1-yl)-quinolin-6-yl]-1H-benzoimidazole-5-carboxylic acid], the inhibition at 33 µM came to 101% and the inhibition at 100 µM is 102%.
`COCCOc1ccc(-c2ccccc2)c(-c2ccc3cc(-c4nc5cc(C(=O)O)ccc5n4C4CCCCC4)ccc3n2)c1` [Compound 461, 1-Cyclohexyl-2-{2-[4-(2-methoxy-ethoxy)-biphen-2-yl]-quinolin-6-yl}-1H-benzoimidazole-5-carboxylic acid]: the inhibition at 33 µM was determined as 97.9% and the inhibition at 100 µM turned out to be 96.7%.
As to `Cc1c(OCc2ccccc2)ccc(-c2ccc3cc(-c4nc5cc(C(=O)O)ccc5n4C4CCCCC4)ccc3n2)c1O` [Compound 462, 2-[2-(4-benzyloxy-2-hydroxy-3-methyl-phenyl)-quinolin-6-yl]-1-cyclohexyl-1H-benzoimidazole-5-carboxylic acid], the inhibition at 33 µM came to 98.2% and the inhibition at 100 µM is 101%.
As to `Cn1c2ccc(Cl)cc2c2cc(-c3ccc4cc(-c5nc6cc(C(=O)O)ccc6n5C5CCCCC5)ccc4n3)ccc21` [Compound 463, 2-[2-(6-chloro-9-methyl-9H-carbazol-3-yl)-quinolin-6-yl]-1-cyclohexyl-1H-benzoimidazole-5-carboxylic acid], the inhibition at 33 µM was determined as 96% and the inhibition at 100 µM came out at 97.2%.
For the compound `Cc1nn(-c2ccccc2)c(C)c1-c1ccc2cc(-c3nc4cc(C(=O)O)ccc4n3C3CCCCC3)ccc2n1` [Compound 464, 1-cyclohexyl-2-[2-(3,5-dimethyl-1-phenyl-1H-pyrazol-4-yl)-quinolin-6-yl]-1H-benzoimidazole-5-carboxylic acid], the inhibition at 33 µM amounted to 99.7% and the inhibition at 100 µM came to 100%.
For `O=C1COc2ccc(-c3ccc4cc(-c5nc6cc(C(=O)O)ccc6n5C5CCCCC5)ccc4n3)cc2N1` [Compound 465, 1-cyclohexyl-2-[2-(3-oxo-3,4-dihydro-2H-benzo[1,4]oxazin-6-yl)-quinolin-6-yl]-1H-benzoimidazole-5-carboxylic acid], the inhibition at 33 µM stood at 98.8% and the inhibition at 100 µM stood at 101%.
For `NNc1cc(-c2ccccc2)nc2ccc(-c3nc4cc(C(=O)O)ccc4n3C3CCCCC3)cc12` [Compound 466, 1-Cyclohexyl-2-(4-hydrazino-2-phenyl-quinolin-6-yl)-1H-benzoimidazole-5-carboxylic acid], the inhibition at 33 µM is 92.9% and the inhibition at 100 µM worked out at 100%.
Consider `O=C(O)c1ccc2c(c1)nc(-c1ccc3nc(-c4ccccc4)cc(Sc4ccccc4)c3c1)n2C1CCCCC1` [Compound 467, 1-Cyclohexyl-2-(2-phenyl-4-phenylsulfanyl-quinolin-6-yl)-1H-benzoimidazole-5-carboxylic acid], for which the inhibition at 33 µM stood at 96.3% and the inhibition at 100 µM was determined as 100%.
Turning to `COc1ccc(-c2ccc(OC)cc2-c2ccc3cc(-c4nc5cc(C(=O)O)ccc5n4C4CCCCC4)ccc3n2)cc1` [Compound 468, 1-cyclohexyl-2-[2-(4,4′-dimethoxy-biphen-2-yl)-quinolin-6-yl]-1H-benzoimidazole-5-carboxylic acid], the inhibition at 33 µM is 99.3% and the inhibition at 100 µM amounted to 99.1%.
On to `COc1ccc(-c2ccc(O)cc2)c(-c2ccc3cc(-c4nc5cc(C(=O)O)ccc5n4C4CCCCC4)ccc3n2)c1` [Compound 469, 1-cyclohexyl-2-[2-(4′-hydroxy-4-methoxy-biphen-2-yl)-quinolin-6-yl]-1H-benzoimidazole-5-carboxylic acid], for which the inhibition at 33 µM amounted to 94.2% and the inhibition at 100 µM was found to be 98.2%.
For the compound `COc1ccc(-c2cccs2)c(-c2ccc3cc(-c4nc5cc(C(=O)O)ccc5n4C4CCCCC4)ccc3n2)c1` [Compound 470, 1-cyclohexyl-2-[2-(5-methoxy-2-thiophen-2-yl-phenyl)-quinolin-6-yl]-1H-benzoimidazole-5-carboxylic acid], the inhibition at 33 µM came out at 101% and the inhibition at 100 µM worked out at 99.4%.
For `Cc1cc(-c2ccccc2Br)nc2ccc(-c3nc4cc(C(=O)O)ccc4n3C3CCCCC3)cc12` [Compound 471, 2-[2-(2-Bromo-phenyl)-4-methyl-quinolin-6-yl]-1-cyclohexyl-1H-benzoimidazole-5-carboxylic acid] the same measures were 97.8% and 99.8%.
Turning to `Cc1cc(-c2ccc3cc(-c4nc5cc(C(=O)O)ccc5n4C4CCCCC4)ccc3n2)c(-c2ccccc2)s1` [Compound 472, 1-cyclohexyl-2-[2-(5-methyl-2-phenyl-thiophen-3-yl)-quinolin-6-yl]-1H-benzoimidazole-5-carboxylic acid], the inhibition at 33 µM turned out to be 97.1% and the inhibition at 100 µM is 98.1%.
For `O=C(O)c1ccc2c(c1)nc(-c1ccc3nc(-c4ccc(-n5ccnc5)cc4)ccc3c1)n2C1CCCCC1` [Compound 473, 1-cyclohexyl-2-[2-(4-imidazol-1-yl-phenyl)-quinolin-6-yl]-1H-benzoimidazole-5-carboxylic acid] the same measures were 99.2% and 97.4%.
For the compound `O=C(O)c1ccc2c(c1)nc(-c1ccc3nc(-c4cccc(O)c4)ccc3c1)n2C1CCCCC1` [Compound 474, 1-Cyclohexyl-2-[2-(3-hydroxy-phenyl)-quinolin-6-yl]-1H-benzoimidazole-5-carboxylic acid], the inhibition at 33 µM was 97% and the inhibition at 100 µM was 101%.
On to `COCCOc1ccc(-c2ccc(Cl)cc2)c(-c2ccc3cc(-c4nc5cc(C(=O)O)ccc5n4C4CCCCC4)ccc3n2)c1` [Compound 475, 2-{2-[4′-Chloro-4-(2-methoxy-ethoxy)-biphen-2-yl]-quinolin-6-yl}-1-cyclohexyl-1H-benzoimidazole-5-carboxylic acid], for which the inhibition at 33 µM amounted to 97.5% and the inhibition at 100 µM worked out at 95.9%.
Regarding `O=C(O)c1ccc2c(c1)nc(-c1ccc3nc(CCn4cccn4)ccc3c1)n2C1CCCCC1` [Compound 476, 1-cyclohexyl-2-[2-(2-pyrazol-1-yl-ethyl)-quinolin-6-yl]-1H-benzoimidazole-5-carboxylic acid], the inhibition at 33 µM was found to be 97.3% and the inhibition at 100 µM amounted to 97.1%.
For `O=C(O)c1cnc2c(c1)nc(-c1ccc3nc(-c4ccccc4Br)ccc3c1)n2C1CCCCC1` [Compound 477, 2-[2-(2-bromo-phenyl)-quinolin-6-yl]-3-cyclohexyl-3H-imidazo[4,5-b]pyridine-6-carboxylic acid], in that order: 92.4% and 95.9%.

The record behind these values is patent US7511145B2 (Genelabs Technologies, Inc., priority 2003, dated 2009).
